The values that follow come from patent US10888548B2, “Anti-dandruff compositions comprising a spirofuranone lactam tetramic acid derivative” (priority 2015, dated 2021).

This assay concerns Malassezia furfur (ATCC #38593). Kind of assay: M. furfur efficacy assay (anti-fungal activity, Alamar blue, 96 well plates). In kind it is cell-based. The protocol:
Malassezia furfur (ATCC #38593) was cultured on Media C agar for 7 d at 37° C. Yeast colonies were then harvested into 0.9% saline sterile diH2O and diluted to approximately 1.5×10^6 CFU/mL using a 0.5 MacFarland standard (Fisher #R20410) to create an assay inoculum. Assay inoculum was added to sterile Media C broth to a final concentration of 4.5×10^4 CFU/mL. Assays were carried out in 96 well plates with a final well volume of 100 μL.
Extract fractions and pure compounds were tested in triplicate against each organism. Extract fractions and pure compounds were resuspended in sterile 20% DMSO.
Each plate contained eight uninoculated positive controls (media+20% DMSO), eight untreated negative controls (Media+20% DMSO+organism), and one column containing a concentration range of a ketoconazole as a control antibiotic. The assay plate was incubated at 37° C. for 5d after which growth within the wells were visualized and photographed with a UVP Biospectrum 500 imaging system. Alamar blue was then added to each well at 10% of the culture volume (11 μL in 100 μL). Fluorescence was monitored using a BioTek Synergy HT plate reader at 530/25 excitation, 590/35 emission and 35 sensitivity at both time zero and 4 hrs after Alamar blue was added. After subtracting the time zero emission 590 nm measurement from the final reading the inferred percentage of microorganism survival relative to vehicle control wells were calculated.
Experimentation was carried out to assess the anti-fungal effect of the produced fumagillin derivative and the pseurotin A each on their own, and in combination against M. furfur in a shampoo type formulation.
Initially the M. furfur efficacy assay was tested with both J&J Baby Shampoo as well as Head & Shoulders to establish a baseline and assess the compatibility of the assay using a shampoo. Compositions of the fumagillin derivative with and without pseurotin A were created and suspended into the baby shampoo. The shampoo mixture was then diluted out into the assay in a similar manner to Head & Shoulders, so that various dilution points in the assay represented multiple sub-inhibitory concentrations of the fumagillin derivative and pseurotin A (concentration combinations are listed in Table 1).
For orientation: Resazurin is reduced to fluorescent resorufin, in cell work by metabolically active cells.

As usually defined, the IC50 is the concentration that inhibits the measured activity by half. The MIC is the lowest concentration that inhibits growth of the organism.

In the case of `CC/C=C\[C@H](O)[C@H](O)C1=C(C)C(=O)[C@]2(O1)C(=O)N[C@@](OC)(C(=O)c1ccccc1)[C@@H]2O` [Pseurotin A, pseurotin A], the IC50 (active alone, M. furfur, incubated at 37° C. for 5d) was 55 µg/mL. Besides, the MIC is, setting by setting: (active alone, M. furfur, incubated at 37° C. for 5d, listed as Pseurotin A (sample 1)) 128 µg/mL; (active alone, M. furfur, incubated at 37° C. for 5d, listed as Pseurotin A (sample 2)) 75 µg/mL. For the setting “fraction 6 and fraction 10 of Peyronellaea sp. RKDO347 extract”, the “anti-Malassezia activity of isolated pure fractions” value is “demonstrated anti-Malassezia activity”.
